# Values of other authors as cited in patent EP2266541A1, “Solid pharmaceutical composition comprising rivaroxaban” (Krka Tovarna Zdravil, D.D., Novo Mesto, priority 2009, dated 2010).
# Conditions: stated in the background section, no method given
structure (smiles),measurement,value
"O=C(NC[C@H]1CN(c2ccc(N3CCOCC3=O)cc2)C(=O)O1)c1ccc(Cl)s1 [Rivaroxaban, 5-chloro-N-{[(5S)-2-oxo-3-[4-(3-oxomorpholin-4-yl)phenyl]oxazolidin-5-yl]methyl}thiophene-2-carboxamide]",solubility in water,about 7 mg/L
